This passage reports Ki results from ChEMBL document CHEMBL2074531, “Physicochemical parameters responsible for the affinity of methotrexate analogs for rat canalicular multispecific organic anion transporter (cMOAT/MRP2)” (Pharm Res, 2001).

The target in this assay is ATP-binding cassette sub-family C member 2 (Rattus norvegicus, UniProt Q63120). Kind of assay: TP_TRANSPORTER: inhibition of DNP-SG uptake in bile canalicular membrane vesicles from SD rat. Type of assay: functional, cell membranes, Sprague-Dawley, Bile canalicular membrane vesicle.
Sequence of ATP-binding cassette sub-family C member 2 (Q63120 whole entry): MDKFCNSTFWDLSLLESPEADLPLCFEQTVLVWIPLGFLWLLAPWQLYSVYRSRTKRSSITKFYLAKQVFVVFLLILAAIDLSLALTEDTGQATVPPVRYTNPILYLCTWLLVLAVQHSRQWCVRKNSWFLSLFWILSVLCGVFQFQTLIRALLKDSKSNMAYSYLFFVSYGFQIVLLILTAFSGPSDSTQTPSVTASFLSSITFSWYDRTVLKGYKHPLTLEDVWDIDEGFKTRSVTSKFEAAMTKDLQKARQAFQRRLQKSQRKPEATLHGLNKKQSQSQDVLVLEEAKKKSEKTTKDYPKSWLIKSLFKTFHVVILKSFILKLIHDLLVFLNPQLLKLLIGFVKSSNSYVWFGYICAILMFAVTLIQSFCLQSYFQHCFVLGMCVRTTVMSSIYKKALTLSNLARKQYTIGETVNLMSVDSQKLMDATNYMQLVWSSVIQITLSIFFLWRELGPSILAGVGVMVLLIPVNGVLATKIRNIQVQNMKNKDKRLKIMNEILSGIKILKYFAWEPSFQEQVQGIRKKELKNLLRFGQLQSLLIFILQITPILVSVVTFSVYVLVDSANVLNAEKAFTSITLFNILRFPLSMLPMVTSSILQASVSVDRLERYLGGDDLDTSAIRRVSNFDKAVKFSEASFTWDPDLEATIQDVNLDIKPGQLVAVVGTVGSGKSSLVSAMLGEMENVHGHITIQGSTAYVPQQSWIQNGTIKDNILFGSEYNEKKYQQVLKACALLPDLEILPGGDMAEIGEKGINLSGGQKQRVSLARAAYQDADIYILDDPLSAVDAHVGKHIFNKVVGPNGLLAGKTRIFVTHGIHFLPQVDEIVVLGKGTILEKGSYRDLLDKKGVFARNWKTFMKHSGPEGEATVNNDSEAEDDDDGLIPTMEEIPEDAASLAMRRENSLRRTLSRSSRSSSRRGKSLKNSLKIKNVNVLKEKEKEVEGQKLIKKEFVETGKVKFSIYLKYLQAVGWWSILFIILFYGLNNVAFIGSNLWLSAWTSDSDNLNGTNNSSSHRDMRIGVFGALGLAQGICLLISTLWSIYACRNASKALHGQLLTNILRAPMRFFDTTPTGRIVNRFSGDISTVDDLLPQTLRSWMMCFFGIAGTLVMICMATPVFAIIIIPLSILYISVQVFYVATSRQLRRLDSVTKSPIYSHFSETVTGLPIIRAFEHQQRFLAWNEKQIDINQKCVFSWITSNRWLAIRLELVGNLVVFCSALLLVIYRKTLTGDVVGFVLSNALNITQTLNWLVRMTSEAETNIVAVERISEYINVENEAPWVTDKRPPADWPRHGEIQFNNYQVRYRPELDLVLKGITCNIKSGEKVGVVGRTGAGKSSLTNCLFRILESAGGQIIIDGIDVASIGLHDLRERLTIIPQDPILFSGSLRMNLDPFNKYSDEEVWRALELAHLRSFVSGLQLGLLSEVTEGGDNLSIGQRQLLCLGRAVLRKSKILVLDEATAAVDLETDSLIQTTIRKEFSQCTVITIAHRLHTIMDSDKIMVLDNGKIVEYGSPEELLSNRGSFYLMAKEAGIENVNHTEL

The compound `Nc1nc(N)c2nc(CN3CCOc4cc(C(=O)NC(CCCC(=O)O)C(=O)O)ccc43)cnc2n1` (stereo not given) gave a Ki of 204 µM.

As to `Nc1nc(N)c2nc(CN3CCOc4cc(C(=O)NC(CCC(=O)O)C(=O)O)ccc43)cnc2n1` (stereo not given), the affinity corresponds to a Ki of 311 µM.

`Nc1nc(N)c2nc(CN3CCSc4cc(C(=O)NC(CCC(=O)O)C(=O)O)ccc43)cnc2n1` (stereo not given) came in with a Ki of 137 µM.

Compound `Cc1cc(C(=O)NC(CCC(=O)O)C(=O)O)ccc1N(C)Cc1cnc2nc(N)nc(N)c2n1` (stereo not given) gave an inhibition constant Ki of 150 µM.

Compound `Cc1cc(C(=O)NC(CCC(=O)O)C(=O)O)cc2c1N(Cc1cnc3nc(N)nc(N)c3n1)CC2` (stereo not given) had a Ki of 173 µM.

Compound `Nc1nc(N)c2nc(CN3CCSc4cc(C(=O)N[C@@H](CCCC(=O)N[C@@H](CCC(=O)O)C(=O)O)C(=O)O)ccc43)cnc2n1` yielded a Ki of 223 µM.

Regarding `CC(C)CC(NC(=O)c1ccc(N(C)Cc2cnc3nc(N)nc(N)c3n2)cc1)C(=O)O` (stereo not given), the Ki is 308 µM.

`CCN(Cc1cnc2nc(N)nc(N)c2n1)c1ccc(C(=O)NC(CCCNC(=O)c2ccccc2)C(=O)O)cc1` (stereo not given) displayed a Ki of 32.5 µM.

Take `Cc1cc(C(=O)NC(CCC(=O)O)C(=O)O)ccc1NCc1cnc2nc(N)nc(N)c2n1` (stereo not given): the affinity, expressed as Ki, was 382 µM.

In turn, `Cc1cc(C(=O)NC(CCC(=O)O)C(=O)O)cc(C)c1N(C)Cc1cnc2nc(N)nc(N)c2n1` (stereo not given) displayed a Ki of 39.2 µM.

`CN(Cc1cnc2nc(N)nc(N)c2n1)c1ccc(C(=O)NC(CCCNC(=O)c2ccccc2)C(=O)O)cc1` (stereo not given) registered a Ki of 48.7 µM.

Take `CN(Cc1cnc2nc(N)nc(N)c2n1)c1ccc(C(=O)NC(CCC(=O)NC(CCC(=O)NC(CCC(=O)NC(CCC(=O)N[C@@H](CCC(=O)O)C(=O)O)C(=O)O)C(=O)O)C(=O)O)C(=O)O)cc1` (stereo not given in full): the affinity corresponds to a Ki of 501 µM.

With `CCC(C)C(NC(=O)c1ccc(N(C)Cc2cnc3nc(N)nc(N)c3n2)cc1)C(=O)O` (stereo not given), affinity was put at a Ki of 56.9 µM.

The compound `CC(C)N(Cc1cnc2nc(N)nc(N)c2n1)c1ccc(C(=O)N2C[C@H](O)C[C@H]2C(=O)O)cc1` gave a Ki of 784 µM.

As for `CN(Cc1cnc2nc(N)nc(N)c2n1)c1ccc(C(=O)NC(CCC(=O)NC(CCC(=O)N[C@@H](CCC(=O)O)C(=O)O)C(=O)O)C(=O)O)cc1` (stereo not given in full), the affinity corresponds to a Ki of 838 µM.

In turn, `CCN(Cc1cnc2nc(N)nc(N)c2n1)c1ccc(C(=O)NC(CCC(=O)O)C(=O)O)cc1C` (stereo not given) yielded a Ki of 98.3 µM.

On to `CN(Cc1cnc2nc(N)nc(N)c2n1)c1ccc(C(=O)N2C[C@H](O)C[C@H]2C(=O)O)cc1`, for which the inhibition constant Ki is over 1000 µM.

As to `CCCN(Cc1cnc2nc(N)nc(N)c2n1)c1ccc(C(=O)NC(CCCNC(=O)c2ccccc2)C(=O)O)cc1` (stereo not given), the inhibition constant Ki was determined as 11.4 µM.

As to `Cc1cc(C(=O)NC(CCCC(=O)O)C(=O)O)ccc1N(C)Cc1cnc2nc(N)nc(N)c2n1` (stereo not given), the Ki came out at 133 µM.

With `C=CCN(Cc1cnc2nc(N)nc(N)c2n1)c1ccc(C(=O)NC(CCC(=O)O)C(=O)O)cc1` (stereo not given), the affinity, expressed as Ki, was 136 µM.

`CC(C)N(Cc1cnc2nc(N)nc(N)c2n1)c1ccc(C(=O)NC(CCCNC(=O)c2ccccc2)C(=O)O)cc1` (stereo not given): affinity was put at a Ki of 14.8 µM.

`Nc1nc(N)c2nc(CN3CCSc4cc(C(=O)NC(CCCC(=O)O)C(=O)O)ccc43)cnc2n1` (stereo not given) yielded a Ki of 159 µM.

`CCCN(Cc1cnc2nc(N)nc(N)c2n1)c1ccc(C(=O)NC(CCC(=O)O)C(=O)O)cc1` (stereo not given) showed a Ki of 154 µM.

In the case of `CC(C)N(Cc1cnc2nc(N)nc(N)c2n1)c1ccc(C(=O)NC(CCC(=O)O)C(=O)O)cc1` (stereo not given) [ISOAMINOPTERIN], the Ki was determined as 173 µM.

`CN(Cc1cnc2nc(N)nc(N)c2n1)c1ccc(C(=O)N[C@@H](CCC(=O)O)C(=O)O)cc1` [METHOTREXATE] gave a Ki of 462 µM.
